Data taken from patent US20100222293A1, “MODULATION OF SPERM MOTILITY” (priority 2007, published 2010).

Tested on: sperm from asthenozoospermic subjects
Assay: Sperm motility parameters after incubation with extracellular ATP (automated cell motility analyzer)
Assay type: cell-based, human
Conditions: 2.5 mM ATP, 60 minutes
Method: Semen samples were collected after 3 days of sexual abstinence in sterile containers. After liquefaction at room temperature for 30 minutes, standard seminal parameters were examined according to the WHO laboratory manual [supra]. For sperm movement analysis, a semen aliquot (10 μl) was placed in a Makler chamber, ten different fields per chamber were randomly examined, and at least 100 sperm for each field of the chamber were scored. Percentages of motile sperm and movement characteristics were analysed using an automated analyzer at 37° C. (CellTrack VP110, Motion Analysis Corporation, Palo Alto, Calif., USA). Sperm velocity and kinetic parameters were evaluated for only motile sperm and were expressed as mean values. Standard deviations were calculated and P values of significance were determined by the Student's t-test. The following sperm parameters were determined: curvilinear velocity (VCL) (also referred to as track speed and is the velocity (in μm/sec) of a sperm along individual tracks; straight progressive velocity (VSL) (the average velocity (in μm/sec) measured in a straight line from the beginning to the end of track); amplitude of lateral head displacement (ALH) (mean width (in μm) of sperm head oscillation); and linearity coefficient (LIN=VSL/VCL×100) (the degree (in %) of straightness of the sperm track). To analyze the effects of extracellular ATP on motility parameters of sperm from the asthenozoospermic subjects, sperm samples from the subjects were washed once by the addition of BWW medium (Biggers-Whitten-Whittingham medium; 95 mM NaCl, 4.8 mM KCl, 1.7 mM CaCl2, 1.2 mM KH2PO4, 1.2 MgSO4, 25 NaHCO3, 5.6 mM fructose, 0.25 mM sodium pyruvate, 3.7 ml/l 60% sodium lactate syrup, 10^4 IU/ml penicillin, and 10 mg/ml streptomycin) and centrifugation at 800×g for 10 minutes. After centrifugation and discarding of the supernatant, the sperm pellets were suspended in BWW medium (at a concentration of 10×10^6 sperm/ml), divided into two equivalent aliquots, and allowed to recover for 15 minutes. One aliquot was then incubated at 37° C. with ATP (2.5 mM final concentration from a 100 mM stock solution made by diluting ATP with physiological solution (0.9% NaCl in distilled water) and the second aliquot was incubated at 37° C. with same amount of physiological solution only (as a negative control). After 60 minutes incubation, sperm motility parameters were determined as described above. The effects of extracellular ATP on sperm motility parameters of sperm from subjects with asthenozoospermia after washing from seminal fluid and resuspension in BWW medium (10×10^6 sperm/ml) were examined.

In the case of `Nc1ncnc2c1ncn2[C@@H]1O[C@H](COP(=O)(O)OP(=O)(O)OP(=O)(O)O)[C@@H](O)[C@H]1O` [ATP, adenosine 5′-triphosphate], the “effect on curvilinear velocity (VCL)” value is reported as “No significant effects”, the “effect on lateral sperm head displacement (ALH)” value is reported as “No significant effects” and the “progressive velocity (VSL)” value (37° C., washed sperm in BWW medium, 27 asthenozoospermic subjects, control 23.81±6.04, p=0.0024) is reported as 28.85±7.27 μm/sec. The “linearity (LIN)” value (37° C., washed sperm in BWW medium, control 29.59±6.25, p=0.0004) was 37.7±7.9.
